Assay results published in ChEMBL document CHEMBL1152873, “Pseurotin A and its analogues as inhibitors of immunoglobulin E [correction of immunoglobuline E] production” (Bioorg Med Chem Lett, 2009).
The source made the active and inactive calls. No cut-off for these calls is given here.

Columns and labels:
[1] = Inhibition of IL4 and LPS-induced IgE production in BALB/c mouse spleen B cell after 6 days by ELISA; type: functional, tissue-based; details: 144 h
[2] = Inhibition of PHA-induced BALB/c mouse T cell proliferation at 10 uM; type: cell-based
K562 = assay: Cytotoxicity against human K562 cells; type: functional, cell-based
[3] = Cytotoxicity against BALB/c mouse B cells assessed as cell viability; type: cell-based
Lymphocyte [4] = assay: Immunosuppressive activity in rat lymphocytes assessed as inhibition of mixed-lymphocyte reaction; type: functional, cell-based
[5] = Selectivity for IgE production in BALB/c mouse spleen B cells over IgM production in BALB/c mouse spleen B cells; type: functional
[6] = Selectivity for IgE production in BALB/c mouse spleen B cells over IgG2a production in BALB/c mouse spleen B cells; type: functional
[7] = Selectivity for IgE production in BALB/c mouse spleen B cells over IgG1 production in BALB/c mouse spleen B cells; type: functional
B [8] = assay: Inhibition of IL4 and LPS-induced IgG production in BALB/c mouse spleen B cell after 6 days by ELISA; type: functional, tissue-based
B [9] = assay: Inhibition of IL4 and LPS-induced IgM production in BALB/c mouse spleen B cell after 6 days by ELISA; type: functional, tissue-based
Lymphocyte [10] = assay: Immunosuppressive activity in rat lymphocytes assessed as inhibition of mixed-lymphocyte reaction at 10 uM; type: functional, cell-based

IC50 [1] | Structure (SMILES) | further results
> 10 µM | CC/C=C\[C@H](O)[C@H](O)C1=C(C)C(=O)[C@]2(O1)C(=O)N[C@@](O)(C(=O)c1ccccc1)[C@@H]2O [PSEUROTIN F2] | –
> 10 µM | CCCC[C@H](O)[C@H](O)C1=C(C)C(=O)[C@]2(O1)C(=O)N[C@@](OC)(C(=O)c1ccccc1)[C@@H]2O [12,13-DIHYDROXYPSEUROTIN A] | –
> 10 µM | CC/C=C\[C@H](OC(C)=O)[C@H](OC(C)=O)C1=C(C)C(=O)[C@]2(O1)C(=O)N(C(C)=O)[C@@](OC)(C(=O)c1ccccc1)[C@@H]2OC(C)=O [TETRAACETYLPSEUROTIN A] | –
> 10 µM | COC(=O)CC[C@H](O)[C@H](O)C1=C(C)C(=O)[C@]2(O1)C(=O)N[C@@](OC)(C(=O)c1ccccc1)[C@@H]2O | –
> 10 µM | CO[C@@]1(C(=O)c2ccccc2)NC(=O)[C@]2(OC(CO)=C(C)C2=O)[C@H]1O | –
3.1 µM | CCCCNCC1=C(C)C(=O)[C@]2(O1)C(=O)N[C@@](OC)(C(=O)c1ccccc1)[C@@H]2O | inhibition at 10 µM [2]: 2%; IC50 (K562): > 10 µM; IC50 [3]: > 10 µM
> 10 µM | CO[C@@]1(C(=O)c2ccccc2)NC(=O)[C@]2(OC(CNCc3ccccc3)=C(C)C2=O)[C@H]1O | –
0.0059 µM | C[C@]12C=CC(=O)C=C1CC[C@@H]1[C@@H]2[C@@H](O)C[C@@]2(C)[C@H]1CC[C@]2(O)C(=O)CO [PREDNISOLONE] | IC50 (Lymphocyte [4]): 0.078 µM; inhibition at 10 µM [2]: 84%; IC50 [3]: > 10 µM; Ratio [5]: 0.4; Ratio [6]: 0.8; Ratio [7]: 1
> 10 µM | CC/C=C\[C@H](O)[C@H](O)C1=C(C)C(=O)[C@]2(O1)C(=O)N(C)[C@@](OC)(C(=O)c1ccccc1)[C@@H]2O [7-N-METHYLPSEUROTIN A] | –
> 10 µM | CO[C@@]1(C(=O)c2ccccc2)NC(=O)[C@]2(OC(C=O)=C(C)C2=O)[C@H]1O | –
> 10 µM | CC/C=C\[C@H](O)[C@H](O)C1=C(C)C(=O)[C@]2(O1)[C@@H](OC)N[C@@](OC)(C(=O)c1ccccc1)[C@@H]2O [6-O-METHOXYPSEUROTIN A] | –
> 10 µM | CC/C=C\[C@H](OC)[C@H](O)C1=C(C)C(=O)[C@]2(O1)C(=O)N[C@@](OC)(C(=O)c1ccccc1)[C@@H]2O [11-O-METHYLPSEUROTIN A] | –
> 10 µM | CCC1OC1[C@H](O)[C@H](O)C1=C(C)C(=O)[C@]2(O1)C(=O)N[C@@](OC)(C(=O)c1ccccc1)[C@@H]2O (stereo partly specified) [13-EPOXYPSEUROTIN A] | –
> 10 µM | CC/C=C\[C@H](O)[C@H](O)C1=C(C)C(=O)[C@]2(O1)C(=O)N[C@@](OC)(C(=O)c1ccccc1F)[C@@H]2O | –
> 10 µM | CCC1CC1[C@H](O)[C@H](O)C1=C(C)C(=O)[C@]2(O1)C(=O)N[C@@](OC)(C(=O)c1ccccc1)[C@@H]2O (stereo partly specified) [12,13-CYCLOPROPYLPSEUROTIN A] | –
0.26 µM | CC/C=C\[C@H]1O[C@@H]1C1=C(C)C(=O)[C@]2(O1)C(=O)N[C@@](OC)(C(=O)c1ccccc1)[C@@H]2O [SYNERAZOL] | IC50 (Lymphocyte [4]): 3.1 µM; inhibition at 10 µM [2]: 54%; IC50 (K562): > 10 µM; IC50 [3]: > 10 µM
> 10 µM | CC/C=C\[C@@H]1O[C@H]1C1=C(C)C(=O)[C@]2(O1)C(=O)N[C@@](OC)(C(=O)c1ccccc1)[C@@H]2O | –
> 10 µM | CCOC(=O)/C=C\C1=C(C)C(=O)[C@]2(O1)C(=O)N[C@@](OC)(C(=O)c1ccccc1)[C@@H]2O | –
> 10 µM | CC/C=C\[C@H]1OC(C)(C)O[C@@H]1C1=C(C)C(=O)[C@]2(O1)C(=O)N[C@@](OC)(C(=O)c1ccccc1)[C@@H]2O | –
> 10 µM | CO[C@@]1(C(=O)c2ccccc2)NC(=O)[C@]2(OC(/C=C/C=C/C(C)=O)=C(C)C2=O)[C@H]1O | –
> 10 µM | CO[C@@]1(C(=O)c2ccccc2)NC(=O)[C@]2(OC(CN(C)Cc3ccccc3)=C(C)C2=O)[C@H]1O | –
> 10 µM | CCOC(=O)/C(C)=C/C1=C(C)C(=O)[C@]2(O1)C(=O)N[C@@](OC)(C(=O)c1ccccc1)[C@@H]2O | –
> 10 µM | CO[C@@]1(C(=O)c2ccccc2)NC(=O)[C@]2(OC(/C=C/C#N)=C(C)C2=O)[C@H]1O | –

IC50 [1] | Structure (SMILES) | further results
> 10 µM | CC/C=C/[C@H](O)[C@H](O)C1=C(C)C(=O)[C@]2(O1)C(=O)N[C@@](OC)(C(=O)c1ccccc1)[C@@H]2O | –
> 10 µM | CNCC1=C(C)C(=O)[C@]2(O1)C(=O)N[C@@](OC)(C(=O)c1ccccc1)[C@@H]2O | –
> 10 µM | CC/C=C\[C@H](O)[C@H](O)C1=C(C)C(=O)[C@]2(C[C@](OC)(C(=O)c3ccccc3)NC2=O)O1 [9-DEOXYPSEUROTIN A] | –
> 10 µM | CCOC(=O)/C=C/C1=C(C)C(=O)[C@]2(O1)C(=O)N[C@@](OC)(C(=O)c1ccccc1)[C@@H]2O | –
> 10 µM | CC/C=C\[C@H](O)[C@H](O)C1=C(C)C(=O)[C@]2(O1)C(=O)N[C@@](OC)(C(=O)c1cccc(F)c1)[C@@H]2O | –
> 10 µM | COC(=O)/C=C/[C@H](O)[C@H](O)C1=C(C)C(=O)[C@]2(O1)C(=O)N[C@@](OC)(C(=O)c1ccccc1)[C@@H]2O | –
> 10 µM | CC[C@H](Br)[C@@H](Br)[C@H](O)[C@H](O)C1=C(C)C(=O)[C@]2(O1)C(=O)N[C@@](OC)(C(=O)c1ccccc1)[C@@H]2O [12,13-DIBROMOPSEUROTIN A] | –
> 10 µM | CO[C@@]1(C(=O)c2ccccc2)NC(=O)[C@]2(OC(CN3CCCCC3)=C(C)C2=O)[C@H]1O | –
> 10 µM | CO[C@@]1(C(=O)c2ccccc2)NC(=O)[C@]2(OC(/C=C/C=O)=C(C)C2=O)[C@H]1O | –
> 10 µM | CCCCCC[C@H](O)[C@H](O)C1=C(C)C(=O)[C@]2(O1)C(=O)N[C@@](OC)(C(=O)c1ccccc1)[C@@H]2O | –
> 10 µM | CO[C@@]1(C(=O)c2ccccc2)NC(=O)[C@]2(OC([C@@H](O)[C@@H](O)/C=C/CCc3ccccc3)=C(C)C2=O)[C@H]1O | –
> 10 µM | CO[C@@]1(C(=O)c2ccccc2)NC(=O)[C@]2(OC([C@@H](O)[C@@H](O)/C=C/C(C)=O)=C(C)C2=O)[C@H]1O [PSEUROTIN E] | –
> 10 µM | CO[C@@]1(C(=O)c2ccccc2)NC(=O)[C@]2(OC([C@@H](O)[C@@H](O)CCCCc3ccccc3)=C(C)C2=O)[C@H]1O | –
0.066 µM | CC/C=C\[C@H](O)CC1=C(C)C(=O)[C@]2(O1)C(=O)N[C@@](OC)(C(=O)c1ccccc1)[C@@H]2O [10-DEOXYPSEUROTIN A] | inhibition at 10 µM [2]: 0%; IC50 (K562): > 10 µM; IC50 [3]: 4.4 µM; Activity (B [8]): Active; Ratio [5]: 44; Ratio [6]: 23; Ratio [7]: 3.5; Activity (B [9]): Active
> 10 µM | CC/C=C\[C@H](O)[C@H](O)C1=C(C)C(=O)[C@]2(O1)C(=O)N[C@@](OCC)(C(=O)c1ccccc1)[C@@H]2O [8-ETHOXYPSEUROTIN A] | –
> 10 µM | CO[C@@]1(C(=O)c2ccccc2)NC(=O)[C@]2(OC([C@@H](O)[C@@H](O)C=C3CCCCC3)=C(C)C2=O)[C@H]1O | –
> 10 µM | C/C=C/[C@H](O)[C@H](O)C1=C(C)C(=O)[C@]2(O1)C(=O)N[C@@](OC)(C(=O)c1ccccc1)[C@@H]2O | –
> 10 µM | CC/C=C\[C@H](OC(C)=O)[C@H](OC(C)=O)C1=C(C)C(=O)[C@]2(O1)C(=O)N[C@@](OC)(C(=O)c1ccccc1)[C@@H]2OC(C)=O [TRIACETYLPSEUROTIN A] | –
> 10 µM | CC/C=C\[C@H](O)[C@H](O)C1=C(C)C(=O)[C@]2(O1)C(=O)N[C@@](OC)(C(O)c1ccccc1)[C@@H]2O (stereo partly specified) [17-DIHYDROPSEUROTIN A] | –
3.6 µM | CC/C=C\[C@H](O)[C@H](O)C1=C(C)C(=O)[C@]2(O1)C(=O)N[C@@](OC)(C(=O)c1ccccc1)[C@@H]2O [PSEUROTIN A] | IC50 (Lymphocyte [4]): > 10 µM; inhibition at 10 µM [2]: 0%; IC50 (K562): > 10 µM; IC50 [3]: > 10 µM; Activity (Lymphocyte [10]): inactive
> 10 µM | CCC[C@H](O)[C@H](O)C1=C(C)C(=O)[C@]2(O1)C(=O)N[C@@](OC)(C(=O)c1ccccc1)[C@@H]2O | –
> 10 µM | C=CCNCC1=C(C)C(=O)[C@]2(O1)C(=O)N[C@@](OC)(C(=O)c1ccccc1)[C@@H]2O | –
